According to patent EP0089939A1, “Compositions for therapeutic or diagnostic use containing oligosaccharides” (BioCarp AB, priority 1982, dated 1983):

Columns and labels:
N. gonorrhoeae = test: Inhibition of haemagglutination of sheep erythrocytes by N. gonorrhoeae; format: cell-based; conditions: Neisseria gonorrhoeae, Erythrocyte, fimbriated N. gonorrhoeae, read after 2-4 hours at room temperature, read-out: Minimum concentration of inhibitor resulting in complete inhibition of haemagglutination
Experimental: (§1) In the test there is used a strain of N. gonorrhoeae (international reference strain 3 from Neisseriaavd. Statens seruminstitutt, Copenhagen, Denmark. and a fresh strain of the same species isolated at the Bacteriological Central Laboratory, Lunds Hospital, Lund, Sweden). The bacteria were cultivated on a special gonococc medium, see Mardh, P.A., Martensson, D, Soltesz, L.V. "An effective, simplified medium for the culture of N. gonorrhoeae". Sex.Trans.Dis. Vol. 5, pp. 10-13, 1978, at + 37°C for 18 hours. The bacterial culture was slurried in PBS, pH 7.2 to a density of 109 bacteria/ml.
(§2) Haemagglutination was performed using erythrocytes from sheep or man (O1Rh+) which were washed with PBS and suspended to a concentration of 1 % v/w in PBS, pH 7.2. The agglutination tests were-performed so that 25 µl of the bacterial suspension was titrated in PBS by using two-fold […] steps. Then 25 µl of the erythrocyte suspension which had been made 1 % were added. The haemagglutination titre (Hu) was determined after incubating the plates (microtitre plates, Limbo Sc. Comp. Inc.) for 2-4 hours in room temperature.
(§3) In the haemagglutination-inhibition tests there were used serial dilutions having the relevant inhibitor (50 µl/well) and […] bacterial suspension diluted to contain twice the lowest haemagglutination titre. The plates were incubated for 30 minutes at +37°C, 25 µl of erythrocyte suspension being then added to each well. The result was read after 2-4 hours incubation at room temperature.

N.gonorrhoeae [1] = test: Inhibition of haemagglutination of human erythrocytes by N. gonorrhoeae; format: cell-based; conditions: Neisseria gonorrhoeae, Erythrocyte; human erythrocytes (O1Rh+); fimbriated N.gonorrhoeae; read after 2-4 hours at room temperature; read-out: Minimum concentration of inhibitor resulting in complete inhibition
Experimental: as §1, §2, §3

N.gonorrhoeae [2] = test: Disinfection: removal of bacteria from an infected surface; conditions: 0.1 percent by weight aqueous solution applied with a cotton pad
Experimental: By disinfection is here primarily intended removal of bacteria from a surface, for example a wound.
A 0.1 percent by weight aqueous solution of the compound β-D-Galp-(1-4)-D-GNAc is prepared and applied by means of a cotton pad onto a surface infected by N.gonorrhoeae.

N.gonorrhoeae [3] = test: Inhibition of adherence of N. gonorrhoeae to vaginal cells; format: cell-based; conditions: human vaginal cells, 50 cells counted; for reduction of the number of adhering bacteria: 5 mg/ml oligosaccharide
Experimental: Cells: Vaginal cells from healthy women in fertile age not having used hormonal preparations and werein proliferation phase were tested. Cells were collected from rear vaginal fornix with a wooden spatula and suspended in RPMI 1640 in a concentration of 10^5 cells/ml.
Gonococci: International reference strain 3 from Neisseriaavd. Statens Seruminstitut, Copenhagen, Denmark, suspended in cell cultivation medaium RPMI 1640 (Flow Ltd.) in a concentration of 10^9 bacteria/ml.
Oligosaccharides: β-D-Galp-(1-3)- -D-GalNAc-(1-0)-Me (1) β-D-Galp-(1-3)- -D-GalNAc-(1-0)-Me (2)
(§4) Procedure: 1 ml of […] containing 0 of (1), 5 mg/ml of (1) and 0.5 mg/ml of (1) and 5 mg/ml of (2), respectively, were incubated with 0.5 ml bacterial suspension at 37°C for 30 minutes. Vaginal cells (1 ml) were incubated with the above preincubated bacterial suspensions at 37°C for 45 minutes. The incubated suspensions were filtered through a filter (pore size 12 µ) and washed 3 times with PBS. The filter was pressed against microscope slides for a few seconds, the microscope slides being then fixed in methanol for 10 minutes. The microscope slides were dried in air and coloured with acridine orange for 2 minutes. After washing and drying in air the slides were studied by means of fluorescence microscopy. The number of bacteria adhering per cell was counted. In each test 50 vaginal cells were counted.

N.meningitidis = test: Inhibition of adherence of N. meningitidis to buccal mucosa cells; format: cell-based; conditions: human buccal mucosa cells, N.meningitidis strain 3K, 45 min
Experimental: as §4
The procedure of EXAMPLE 2 was repeated but in this case cells were collected from young healthy women by scraping the Buccal Mucosae with a wooden spatula. The bacterium used was N.meningitidis, international test strain 3K, Statens Seruminstitut, Copenhagen, Denmark.

CO[C@@H]1O[C@H](CO)[C@H](O)[C@H](O[C@@H]2O[C@H](CO)[C@H](O)[C@H](O)[C@H]2O)[C@H]1NC(C)=O [β-D-Galp-(1-3)-β-D-GalNAc-(1-O)Me]
minimal effective concentration (N. gonorrhoeae): > 2000 µg/mL

OC[C@H]1O[C@@H](O[C@H]2[C@@H](O)[C@@H](CO)OC(O)[C@@H]2O)[C@H](O)[C@@H](O)[C@H]1O (stereo partly drawn) [β-D-Galp-(1-3)-D-Gal]
minimal effective concentration (N.gonorrhoeae [1]): > 5000 µg/mL

CC(=O)N[C@H]1C(O)O[C@H](CO)[C@@H](O[C@@H]2O[C@H](CO)[C@H](O)[C@H](O)[C@H]2O)[C@@H]1O (stereo partly drawn) [β-D-Galp-(1-4)-D-GNAc]
removal of the bacterium from the surface (N.gonorrhoeae [2]): effective removal of the bacterium from the surface

CO[C@H]1O[C@H](CO)[C@H](O)[C@H](O[C@@H]2O[C@H](CO)[C@H](O)[C@H](O)[C@H]2O)[C@H]1NC(C)=O [β-D-Galp-(1-3)-α-D-GalNAcp-(1-O)Me, Methyl 2-acetamido-2-deoxy-3-0-(β-D-galactopyranosyl)-a--D-galactopyranoside]
minimal effective concentration (N.gonorrhoeae [1]): 200 µg/mL

OC[C@H]1O[C@@H](O[C@H]2[C@H](O)[C@@H](O)C(O)O[C@@H]2CO)[C@H](O)[C@@H](O)[C@H]1O (stereo partly drawn) [β-D-Galp-(1-4)-D-Glc]
minimal effective concentration (N.gonorrhoeae [1]): > 5000 µg/mL

COC1O[C@H](CO)[C@H](O)[C@H](O[C@@H]2O[C@H](CO)[C@H](O)[C@H](O)[C@H]2O)[C@H]1NC(C)=O (stereo partly drawn) [(2), β-D-Galp-(1-3)- -D-GalNAc-(1-0)-Me]
reduction of the number of adhering bacteria (N.gonorrhoeae [3]): did not significantly effect adherence

CC(=O)N[C@H]1[C@H](O[C@H]2[C@@H](O)[C@@H](CO)O[C@H](O[C@@H]3[C@H](O)[C@@H](O)[C@H](O[C@H]4[C@H](O)[C@@H](O)C(O)O[C@@H]4CO)O[C@@H]3CO)[C@@H]2O)O[C@H](CO)[C@H](O)[C@@H]1O (stereo partly drawn) [β-D-GalNAc-(1-3)-α-D-Galp-(1-4) -β-D-Galp-(1-4)-D-Glc]
minimal effective concentration (N.gonorrhoeae [1]): > 5000 µg/mL

OC[C@H]1O[C@@H](OC[C@H]2OC(O)[C@H](O)[C@@H](O)[C@@H]2O)[C@H](O)[C@@H](O)[C@H]1O (stereo partly drawn) [β-D-Galp-(1-6)-D-Glc]
minimal effective concentration (N.gonorrhoeae [1]): > 5000 µg/mL

CC(=O)N[C@H]1C(O)O[C@H](CO)[C@H](O)[C@@H]1O[C@@H]1O[C@H](CO)[C@H](O)[C@H](O)[C@H]1O (stereo partly drawn) [β-D-Galp-(1-3)-D-GalNAc]
minimal effective concentration (N. gonorrhoeae): 900 µg/mL | minimal effective concentration (N.gonorrhoeae [1]): 800 µg/mL

COC1O[C@H](CO)[C@H](O)[C@H](O[C@@H]2O[C@H](CO)[C@H](O)[C@H](O)[C@H]2O)[C@H]1NC(C)=O (stereo partly drawn) [(1), β-D-Galp-(1-3)- -D-GalNAc-(1-0)-Me]
effect on adherence (N.gonorrhoeae [3]; 0.5 mg/ml oligosaccharide): did not significantly effect adherence | reduction of the number of adhering bacteria (N.gonorrhoeae [3]; 45 min): 87 | reduction of the number of adhering bacteria (N.meningitidis; 0.5 mg/ml oligosaccharide): about 15% | reduction of the number of adhering bacteria (N.meningitidis; 5 mg/ml oligosaccharide): 90%

CO[C@H]1O[C@H](CO)[C@H](O)[C@H](O[C@@H]2O[C@H](CO)[C@H](O)[C@H](O)[C@H]2O)[C@H]1NC(C)=O [β-D-Galp-(1-3)-α-D-GalNAc-(1-O)Me]
minimal effective concentration (N. gonorrhoeae): 150 µg/mL

CO[C@@H]1O[C@H](CO)[C@H](O)[C@H](O[C@@H]2O[C@H](CO)[C@H](O)[C@H](O)[C@H]2O)[C@H]1NC(C)=O [β-D-Galp-(1-3)-β-D-GalNAcp-(1-O)Me, Methyl 2-acetamido-2-deoxy-3-0-(B-D-galaetopyranosyl)--β-D-galactopyranoside]
minimal effective concentration (N.gonorrhoeae [1]): > 2000 µg/mL
